The term pIC50 denotes −log10 of the IC50, conventionally taken in molar units. A lower pIC50 goes with a high IC50.

pIC50: −log10 of the molar value.

Among the data in ChEMBL document CHEMBL2151037, “Synthesis of novel 1H-1,2,3-triazole tethered C-5 substituted uracil-isatin conjugates and their cytotoxic evaluation” (Eur J Med Chem, 2012) are IC50 values, retold here.

Common to all, as to type: functional, cell-based
In one test the test system is HeLa. Description: Antiproliferative activity against human HeLa cells after 24 hrs by MTT assay.
The next test concerns DU-145. The test can be described thus: Antiproliferative activity against human DU145 cells after 24 hrs by MTT assay. Conditions: DU-145, 24 h. In general terms: Tetrazolium dyes change colour on reduction, which living cells bring about.
For another test, the system named is MCF7. The test can be described thus: Antiproliferative activity against human MCF7 cells after 24 hrs by MTT assay. The settings on record: MCF7, 24 h.

Regarding `O=C1C(=O)N(CCn2cc(Cn3ccc(=O)n(Cc4cn(CCN5C(=O)C(=O)c6ccccc65)nn4)c3=O)nn2)c2ccccc21`, the pIC50 with HeLa is less than 4.00; in the test with DU-145 it was 4.24; in the test on MCF7, 4.34.

As to `O=C1C(=O)N(CCn2cc(Cn3ccc(=O)n(Cc4cn(CCN5C(=O)C(=O)c6cc(F)ccc65)nn4)c3=O)nn2)c2ccc(F)cc21`, the pIC50 was less than 4.00 in the test with HeLa, less than 4.00 in the test on DU-145 and 4.37 in the test with MCF7.

Consider `O=C1C(=O)N(CCn2cc(Cn3ccc(=O)n(Cc4cn(CCN5C(=O)C(=O)c6cc(Cl)ccc65)nn4)c3=O)nn2)c2ccc(Cl)cc21`, for which the pIC50 with HeLa was less than 4.00; in the test with DU-145 it was 4.37; with MCF7, less than 4.00.

Turning to `Cc1ccc2c(c1)C(=O)C(=O)N2CCn1cc(Cn2ccc(=O)n(Cc3cn(CCN4C(=O)C(=O)c5cc(C)ccc54)nn3)c2=O)nn1`, the pIC50 in the test on HeLa was 4.28; in the test on DU-145, 4.42; in the test with MCF7, 4.29.

With `O=C1C(=O)N(CCn2cc(Cn3cc(F)c(=O)n(Cc4cn(CCN5C(=O)C(=O)c6ccccc65)nn4)c3=O)nn2)c2ccccc21`, the results for the pIC50 in the test on HeLa, in the test with DU-145 and in the test on MCF7 were less than 4.00, 4.54 and less than 4.00, respectively.

For `O=C1C(=O)N(CCn2cc(Cn3cc(F)c(=O)n(Cc4cn(CCN5C(=O)C(=O)c6cc(Cl)ccc65)nn4)c3=O)nn2)c2ccc(Cl)cc21`, the pIC50 with HeLa was less than 4.00; with DU-145, less than 4.00; in the test on MCF7 it was 4.20.

In the case of `O=C1C(=O)N(CCn2cc(Cn3cc(Cl)c(=O)n(Cc4cn(CCN5C(=O)C(=O)c6ccccc65)nn4)c3=O)nn2)c2ccccc21`, the figures for the pIC50 in the test on HeLa, in the test with DU-145 and in the test on MCF7 were less than 4.00, 4.74 and less than 4.00, respectively.

As to `O=C1C(=O)N(CCn2cc(Cn3cc(Cl)c(=O)n(Cc4cn(CCN5C(=O)C(=O)c6cc(Cl)ccc65)nn4)c3=O)nn2)c2ccc(Cl)cc21`, the pIC50 is 4.18 in the test with HeLa, less than 4.00 in the test on DU-145 and 4.42 in the test on MCF7.

Turning to `O=C1C(=O)N(CCCn2cc(Cn3ccc(=O)n(Cc4cn(CCCN5C(=O)C(=O)c6ccccc65)nn4)c3=O)nn2)c2ccccc21`, the figures for the pIC50 in the test on HeLa, with DU-145 and with MCF7 were 4.29, less than 4.00 and 4.25, respectively.

As to `O=C1C(=O)N(CCCn2cc(Cn3ccc(=O)n(Cc4cn(CCCN5C(=O)C(=O)c6cc(F)ccc65)nn4)c3=O)nn2)c2ccc(F)cc21`, the pIC50 is 4.28 in the test on HeLa, 4.18 in the test with DU-145 and 4.01 in the test with MCF7.

As to `O=C1C(=O)N(CCCn2cc(Cn3ccc(=O)n(Cc4cn(CCCN5C(=O)C(=O)c6cc(Cl)ccc65)nn4)c3=O)nn2)c2ccc(Cl)cc21`, the negative-log IC50 (pIC50) in the test with HeLa is 4.48; with DU-145, 4.86; in the test with MCF7, less than 4.00.

Take `Cc1ccc2c(c1)C(=O)C(=O)N2CCCn1cc(Cn2ccc(=O)n(Cc3cn(CCCN4C(=O)C(=O)c5cc(C)ccc54)nn3)c2=O)nn1`: the negative-log IC50 (pIC50) with HeLa is less than 4.00; with DU-145, 4.20; in the test with MCF7, less than 4.00.
